According to US20200199541A1, “BLOOD VESSEL ORGANOID, METHODS OF PRODUCING AND USING SAID ORGANOIDS” (IMBA - INSTITUT FÜR MOLEKULARE BIOTECHNOLOGIE GMBH, priority 2017, published 2020):
“Also recorded” adds a separate entry of the source.

Columns and labels:
[1] = test system: human vascular organoid transplants; experiment: Human CD31+ blood vessel density of vascular organoid transplants in diabetic STZ mice; type: in vivo, mouse; settings: diabetic STZ NSG mice, DAPT 5 mg/kg
Protocol: (§1) Modeling diabetic vasculopathy in human vascular organoids in vivo. Immunodeficient NSG mice carrying human vascular organoid transplants were daily i.p. injected with 40 mg/kg Streptozotocin (STZ) (Merck, 572201) for 5 consecutive days. Every day, STZ was freshly dissolved in citrate buffer (pH4.6) and immediately used. Diabetes was confirmed (blood glucose >300 mg/dL) by measuring non-fasting glucose using the OneTouch UltraEasy system (Lifetouch, AW 06637502C). DAPT (Selleckchem 52215) was dissolved in ethanol and injected with 90% cornoil for 5 consecutive days at 5 mg/kg with 2 days of no treatment per week. Anti-Notch3 blocking antibodies (R&D AF1559) were injected 3 time/week at lmg/kg. For quantifying vessel leakage, the FITC-Dextran^+ area was measured and normalized to the area of perfused human blood vessels (hCD31^+) using the FIJI software. This ratio was then further normalized to control non-diabetic mice. Permeability of long-term DAPT treated vessels were measured after 2 days of treatment stop to avoid measuring acute effects of DAPT on vessel permeability.

[2] = test system: human blood vessel organoids; experiment: Diabetic basement membrane thickening (Collagen IV) in human blood vessel organoids cultured in diabetic medium; type: cell-based; settings: diabetic cocktail, indicated DAPT doses (FIG. 5)
[3] = test system: human vascular organoid transplants; experiment: Vessel leakage (FITC-Dextran extravasation) of human vascular organoid transplants in diabetic STZ mice; type: in vivo, mouse; settings: diabetic STZ NSG mice, DAPT 5 mg/kg
Protocol: as §1

[4] = test system: human blood vessel organoids; experiment: Diabetic basement membrane thickening (Collagen IV) in human blood vessel organoids cultured in diabetic medium; type: cell-based; settings: for high glucose/TNFα/IL6-induced thickening of the basal blood vessel membrane (Collagen IV): diabetic medium 75 mM Glucose, 1 ng/mL TNFα, 1 ng/mL IL-6, drug doses (DAPT 25 μM); for increase of Col IV+ basement membrane under diabetic conditions: 75 mM Glucose, 1 ng/mL IL-6, 1 ng/mL TNF-α, 10 μM RO4929097, 1 μM Dehydroxy-LY411575, 1 μM LY411575; for diabetic basement membrane thickening (Col IV) on blocking Notch pathway members: 2 weeks diabetic media (hyperglycemia + IL-6 + TNF-a), blocking antibodies or non-crosslinked recombinant proteins
Protocol: Modeling diabetic vasculopathy in human vascular organoids. Established endothelial networks in vascular organoids were cultured in a non-diabetic control medium (17 mM Glucose) or diabetic medium (75 mM Glucose, in the presence of absence of human TNFα (1 ng/mL, Invitrogen PHC3011) and/or IL-6 (1 ng/mL, Peprotech 200-06)) for up to 3 weeks before the basement membrane was investigated by Collagen type IV immunostaining and electron microscopy. D-Mannitol was used in non-diabetic media to control for hyperosmotic effects. For basement membrane quantifications, acquired z-stacks were analysed and the thickness of ColIV coats around luminal structures were measured using ImageJ software. For drug treatment, organoids were exposed to diabetic medium (75 mM Glucose, 1 ng/mL human TNFα, and 1 ng/mL IL-6) in the presence or absence of the following drugs: 2,4-Thiazolidinedione (5 mM, Abcam ab144811), Metformin (5 mM, Abcam ab120847), Acarbose (80 μg/mL, Sigma A8980), […] (100 μM, Sigma N3538), Diphenyleneiodonium (10 μM), Glimepiride (30 nM, Sigma G2295), Pioglitazone (10 μM, Sigma E6910). The following small molecule inhibitors were used: N-Acetyl-L-cysteine (500 μM, Sigma, A7250), CHIR99021 (10 μM, Tocris 4423), Goe6976 (100nM, Merck U51365250), MK2206 (10 μM, EubioS1078), QNZ (10 μM, Eubio […]), 5B203580 (10 μM, Eubio […]), SCH772984 (500 nM, Eubio […], Calbiochem 688000), DAPT (25 μM, Sigma D5942), 5B431542 (10 μM, Abcam ab120163).

C[C@H](NC(=O)Cc1cc(F)cc(F)c1)C(=O)N[C@H](C(=O)OC(C)(C)C)c1ccccc1 [DAPT]
human blood vessel (CD31+) density in transplanted vascular organoids [1]: restores human vessel density; also recorded: rescued the loss of CD31^+ human blood vessels | dose dependence of prevention of basement membrane thickening (ColIV thickness) [2]: dose dependent; also recorded: dose-dependent | vessel permeability / leakage (FITC-Dextran extravasation) [3]: normalized diabetic vessel permeability; also recorded: excessive blood vessel leakiness was rescued | high glucose/TNFα/IL6-induced thickening of the basal blood vessel membrane (Collagen IV) [4]: abrogates thickening of the vascular basement membrane; also recorded: can prevent diabetic vascular basement membrane thickening; also recorded: completely abrogated the expansion of collagen IV and basal membrane thickening; also recorded: nearly completely prevented the thickening of the basal membrane

C[C@H](NC(=O)Cc1cc(F)cc(F)c1)C(=O)N[C@@H]1C(=O)N(C)c2ccccc2-c2ccccc21 [Dehydroxy-LY411575]
increase of Col IV+ basement membrane under diabetic conditions [4]: prevent the increase of basement membrane (Col IV) under diabetic conditions

C[C@H](NC(=O)[C@@H](O)c1cc(F)cc(F)c1)C(=O)N[C@@H]1C(=O)N(C)c2ccccc2-c2ccccc21 [LY411575]
increase of Col IV+ basement membrane under diabetic conditions [4]: prevent the increase of basement membrane (Col IV) under diabetic conditions

CC(C)(C(=O)NCC(F)(F)C(F)(F)F)C(=O)N[C@@H]1C(=O)Nc2ccccc2-c2ccccc21 [RO4929097]
increase of Col IV+ basement membrane under diabetic conditions [4]: prevent the increase of basement membrane (Col IV) under diabetic conditions

c1ccc2c(c1)[I+]c1ccccc1-2 [diphenyleneiodonium, Diphenyleneiodonium]
high glucose/TNFα/IL6-induced thickening of the basal blood vessel membrane (Collagen IV) [4]: none of the medicines that we tested

CCC1=C(C)CN(C(=O)NCCc2ccc(S(=O)(=O)NC(=O)N[C@H]3CC[C@H](C)CC3)cc2)C1=O [glimepiride, Glimepiride]
high glucose/TNFα/IL6-induced thickening of the basal blood vessel membrane (Collagen IV) [4]: none of the medicines that we tested

CN(C)C(=N)N=C(N)N [metformin, Metformin]
high glucose/TNFα/IL6-induced thickening of the basal blood vessel membrane (Collagen IV) [4]: none of the medicines that we tested

CC(C)[C@H]1CC[C@H](C(=O)N[C@H](Cc2ccccc2)C(=O)O)CC1 [nateglindine, Nateglindine]
high glucose/TNFα/IL6-induced thickening of the basal blood vessel membrane (Collagen IV) [4]: none of the medicines that we tested

O=C1CSC(=O)N1 [thiazolidinedione, 2,4-Thiazolidinedione]
high glucose/TNFα/IL6-induced thickening of the basal blood vessel membrane (Collagen IV) [4]: none of the medicines that we tested

D114: non-crosslinked recombinant protein (Notch ligand, Delta-like protein 4) used as blocker
diabetic basement membrane thickening (Col IV) on blocking Notch pathway members [4]: completely blocked basement membrane thickening

B1: D111: non-crosslinked recombinant protein (Notch ligand) used as blocker (protein, UniProt O00548 18-723, looked up)
Delta-like protein 1: QVWSSGVFELKLQEFVNKKGLLGNRNCCRGGAGPPPCACRTFFRVCLKHYQASVSPEPPCTYGSAVTPVLGVDSFSLPDGGGADSAFSNPIRFPFGFTWPGTFSLIIEALHTDSPDDLATENPERLISRLATQRHLTVGEEWSQDLHSSGRTDLKYSYRFVCDEHYYGEGCSVFCRPRDDAFGHFTCGERGEKVCNPGWKGPYCTEPICLPGCDEQHGFCDKPGECKCRVGWQGRYCDECIRYPGCLHGTCQQPWQCNCQEGWGGLFCNQDLNYCTHHKPCKNGATCTNTGQGSYTCSCRPGYTGATCELGIDECDPSPCKNGGSCTDLENSYSCTCPPGFYGKICELSAMTCADGPCFNGGRCSDSPDGGYSCRCPVGYSGFNCEKKIDYCSSSPCSNGAKCVDLGDAYLCRCQAGFSGRHCDDNVDDCASSPCANGGTCRDGVNDFSCTCPPGYTGRNCSAPVSRCEHAPCHNGATCHERGHRYVCECARGYGGPNCQFLLPELPPGPAVVDLTEKLEGQGGPFPWVAVCAGVILVLMLLLGCAAVVVCVRLRLQKHRPPADPCRGETETMNNLANCQREKDISVSIIGATQIKNTNKKADFHGDHSADKNGFKARYPAVDYNLVQDLKGDDTAVRDAHSKRDTKCQPQGSSGEEKGTPTTLRGGEASERKRPDSGCSTSKDTKYQSVYVISEEKDECVIATEV
diabetic basement membrane thickening (Col IV) on blocking Notch pathway members [4]: did not impact on the diabetes mediated thickening of the vascular basement membrane
